Data on 27 molecules can be found in patent US9532990B2 (Zhejiang DTRM Biopharma Co. Ltd., priority 2014, dated 2017).

The structures appear in SMILES notation. Where two headings read alike, the source gives them in different places.

The target of the assay is BTK wild type (Homo sapiens (Human), UniProt Q06187). In words: Inhibition assay of BTK kinase activity (HTRF). Format: biochemical. The procedure:
Inhibition Assay of BTK Kinase Activity:
The enzyme reaction mixture of BTK wild type standard HTRF assay contained 1 nM BTK wild type, 1 μM biotin-TK1 peptide, and 30 μM ATP in a buffer. The enzyme reaction were carried out at room temperature for 60 minutes. […] The plates were incubated at room temperature for 60 minutes and then read in the Envision plate reader.

[1] abbreviates: all compounds with IC50 of less 10 nM, read-out: IC50 (BTK).

BTK wild type, sequence (Q06187 whole entry): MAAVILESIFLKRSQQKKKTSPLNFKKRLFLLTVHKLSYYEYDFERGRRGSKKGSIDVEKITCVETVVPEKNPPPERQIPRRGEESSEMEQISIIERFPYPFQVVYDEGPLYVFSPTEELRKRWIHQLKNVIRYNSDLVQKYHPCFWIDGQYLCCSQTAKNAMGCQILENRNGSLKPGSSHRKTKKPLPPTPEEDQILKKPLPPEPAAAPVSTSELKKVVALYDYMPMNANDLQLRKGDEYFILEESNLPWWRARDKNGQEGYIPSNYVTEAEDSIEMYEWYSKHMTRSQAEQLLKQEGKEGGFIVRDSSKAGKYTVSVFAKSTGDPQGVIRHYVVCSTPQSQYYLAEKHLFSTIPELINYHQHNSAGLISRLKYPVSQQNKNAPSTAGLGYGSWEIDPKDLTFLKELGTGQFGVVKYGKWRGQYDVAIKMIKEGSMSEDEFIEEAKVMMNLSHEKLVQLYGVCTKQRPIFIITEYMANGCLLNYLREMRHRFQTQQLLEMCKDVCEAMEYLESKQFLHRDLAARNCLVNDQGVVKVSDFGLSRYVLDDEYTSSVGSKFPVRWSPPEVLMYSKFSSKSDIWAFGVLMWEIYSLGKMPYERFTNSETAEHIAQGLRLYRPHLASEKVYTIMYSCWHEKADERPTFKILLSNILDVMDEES

What is called IC50 is the concentration at which inhibition is half-maximal. As for `C=C(C#N)CN1CCCC(n2nc(-c3ccc(Oc4c(F)c(F)cc(F)c4F)cc3F)c3c(N)ncnc32)C1` (stereo not shown) [Compound 70, 2-((3-(4-amino-3-(2-fluoro-4-(2,3,5,6-tetrafluorophenoxy)phenyl)-1H-pyrazolo[3,4-d]pyrimidin-1-yl)piperidin-1-yl)methyl)acrylonitrile], the IC50 (read-out: BTK IC50) turned out to be 17 nM.

As for `Nc1ncnc2c1c(-c1ccc(Oc3c(F)c(F)cc(F)c3F)cc1F)nn2C1CCCN(C(=O)c2cccnc2)C1` (stereo not shown) [Compound 60, (3-(4-amino-3-(2-fluoro-4-(2,3,5,6-tetrafluorophenoxy)phenyl)-1H-pyrazolo[3,4-d]pyrimidin-1-yl)piperidin-1-yl)(pyridin-3-yl)methanone], the IC50 (read-out: BTK IC50) is 576 nM.

With `COC(=O)NC(=O)/C=C\C(=O)N1CCCC(n2nc(-c3ccc(Oc4c(F)c(F)cc(F)c4F)cc3F)c3c(N)ncnc32)C1` (stereo not shown) [Compound 47, (Z)-methyl 4-(3-(4-amino-3-(2-fluoro-4-(2,3,5,6-tetrafluorophenoxy)phenyl)-1H-pyrazolo[3,4-d]pyrimidin-1-yl)piperidin-1-yl)-4-oxobut-2-enoylcarbamate], the half-inhibitory concentration (IC50) is less than 10 nM under setting [1] and 6 nM (read-out: BTK IC50).

For the molecule `CN(C)CC(=O)N1CCCC(n2nc(-c3ccc(Oc4c(F)c(F)cc(F)c4F)cc3F)c3c(N)ncnc32)C1` (stereo not shown) [Compound 62, 1-(3-(4-amino-3-(2-fluoro-4-(2,3,5,6-tetrafluorophenoxy)phenyl)-1H-pyrazolo[3,4-d]pyrimidin-1-yl)piperidin-1-yl)-2-(dimethylamino)ethanone], for the setting “read-out: BTK IC50”, the IC50 came out at 207 nM.

Regarding `Nc1ncnc2c1c(-c1ccc(Oc3c(F)c(F)cc(F)c3F)cc1F)nn2C1CCCN(C(=O)c2c[nH]cn2)C1` (stereo not shown) [Compound 59, (3-(4-amino-3-(2-fluoro-4-(2,3,5,6-tetrafluorophenoxy)phenyl)-1H-pyrazolo[3,4-d]pyrimidin-1-yl)piperidin-1-yl)(1H-imidazol-4-yl)methanone], under “read-out: BTK IC50”, the IC50 is 174 nM.

Turning to `C/C=C/C(=O)N1CC[C@@H](n2nc(-c3ccc(Oc4c(F)c(F)cc(F)c4F)cc3F)c3c(N)ncnc32)C1` [Compound 104, (E)-1-((R)-3-(4-amino-3-(2-fluoro-4-(2,3,5,6-tetrafluorophenoxy)phenyl)-1H-pyrazolo[3,4-d]pyrimidin-1-yl)pyrrolidin-1-yl)but-2-en-1-one], the IC50 (read-out: BTK IC50) turned out to be 107 nM.

For `C=CC(=O)N[C@@H]1CC[C@@H](n2nc(-c3ccc(Oc4c(F)c(F)cc(F)c4F)cc3F)c3c(N)ncnc32)C1` [Compound 25, N-((1r,3r)-3-(4-amino-3-(2-fluoro-4-(2,3,5,6-tetrafluorophenoxy)phenyl)-1H-pyrazolo[3,4-d]pyrimidin-1-yl)cyclopentyl)acrylamide], the IC50 (read-out: BTK IC50) turned out to be 17 nM.

Regarding `Nc1ncnc2c1c(-c1ccc(Oc3c(F)c(F)cc(F)c3F)cc1F)nn2CCN1C(=O)C=CC1=O` [Compound 51, 1-(2-(4-amino-3-(2-fluoro-4-(2,3,5,6-tetrafluorophenoxy)phenyl)-1H-pyrazolo[3,4-d]pyrimidin-1-yl)ethyl)-1H-pyrrole-2,5-dione], the half-inhibitory concentration (IC50) (read-out: BTK IC50) is 527 nM.

In the case of `CNC(=O)C(=O)N1CCCC(n2nc(-c3ccc(Oc4c(F)c(F)cc(F)c4F)cc3F)c3c(N)ncnc32)C1` (stereo not shown) [Compound 57, 2-(3-(4-amino-3-(2-fluoro-4-(2,3,5,6-tetrafluorophenoxy)phenyl)-1H-pyrazolo[3,4-d]pyrimidin-1-yl)piperidin-1-yl)-N-methyl-2-oxoacetamide], the IC50 (read-out: BTK IC50) worked out at 692 nM.

In the case of `C=C(C#N)C(=O)N1CCCC(n2nc(-c3ccc(Oc4c(F)c(F)cc(F)c4F)cc3F)c3c(N)ncnc32)C1` (stereo not shown) [Compound 49, 2-(3-(4-amino-3-(2-fluoro-4-(2,3,5,6-tetrafluorophenoxy)phenyl)-1H-pyrazolo[3,4-d]pyrimidin-1-yl)piperidine-1-carbonyl)acrylonitrile], for the setting “read-out: BTK IC50”, the IC50 turned out to be 509 nM.

For the molecule `CC(C)C(=O)C(=O)N1CC[C@@H](n2nc(-c3ccc(Oc4c(F)c(F)cc(F)c4F)cc3F)c3c(N)ncnc32)C1` [Compound 79, 1-((R)-3-(4-amino-3-(2-fluoro-4-(2,3,5,6-tetrafluorophenoxy)phenyl)-1H-pyrazolo[3,4-d]pyrimidin-1-yl)pyrrolidin-1-yl)-3-methylbutane-1,2-dione], the IC50 (read-out: BTK IC50) was 1660 nM.

Regarding `CC(C)(CO)C(=O)C(=O)N1CC[C@@H](n2nc(-c3ccc(Oc4c(F)c(F)cc(F)c4F)cc3F)c3c(N)ncnc32)C1` [Compound 80, 1-((R)-3-(4-amino-3-(2-fluoro-4-(2,3,5,6-tetrafluorophenoxy)phenyl)-1H-pyrazolo[3,4-d]pyrimidin-1-yl)pyrrolidin-1-yl)-4-hydroxy-3,3-dimethylbutane-1,2-dione], the IC50 (read-out: BTK IC50) stood at 1280 nM.

Regarding `C=CS(=O)(=O)N1CCCC(n2nc(-c3ccc(C(=O)c4cccc(F)c4)cc3F)c3c(N)ncnc32)C1` (stereo not shown) [Compound 8, (4-(4-amino-1-(1-(vinylsulfonyl)piperidin-3-yl)-1H-pyrazolo[3,4-d]pyrimidin-3-yl)-3-fluorophenyl)(3-fluorophenyl)methanone], the IC50 (read-out: BTK IC50) stood at 2 nM.

As for `Nc1ncnc2c1c(-c1ccc(Oc3c(F)c(F)cc(F)c3F)cc1F)nn2[C@H]1CCCN(C(=O)C(Cl)Cl)C1` [Compound 102, 1-((S)-3-(4-amino-3-(2-fluoro-4-(2,3,5,6-tetrafluorophenoxy)phenyl)-1H-pyrazolo[3,4-d]pyrimidin-1-yl)piperidin-1-yl)-2,2-dichloroethanone], for the setting “read-out: BTK IC50”, the IC50 was found to be 1600 nM.

Take `Nc1ncnc2c1c(-c1ccc(Oc3c(F)c(F)cc(F)c3F)cc1F)nn2[C@@H]1CCN(C(=O)C(Cl)CO)C1` (stereo partly shown) [Compound 119]: for the setting “read-out: BTK IC50”, the IC50 was determined as 83 nM.

`Cc1oncc1C(=O)N1CCCC(n2nc(-c3ccc(C(=O)c4cccc(F)c4)cc3F)c3c(N)ncnc32)C1` (stereo not shown) [Compound 6, (3-(4-amino-3-(2-fluoro-4-(3-fluorobenzoyl)phenyl)-1H-pyrazolo[3,4-d]pyrimidin-1-yl)piperidin-1-yl)(5-methylisoxazol-4-yl)methanone]: the IC50 (read-out: BTK IC50) amounted to 138 nM.

With `C=CC(=O)N(C)CCCn1nc(-c2ccc(Oc3c(F)c(F)cc(F)c3F)cc2F)c2c(N)ncnc21` [Compound 86, N-(3-(4-amino-3-(2-fluoro-4-(2,3,5,6-tetrafluorophenoxy)phenyl)-1H-pyrazolo[3,4-d]pyrimidin-1-yl)propyl)-N-methylacrylamide], for the setting “read-out: BTK IC50”, the IC50 is 8 nM.

Consider `C=CC(=O)N1CCC(n2nc(-c3ccc(Oc4c(F)c(F)cc(F)c4F)cc3F)c3c(N)ncnc32)CC1` [Compound 27, 1-(4-(4-amino-3-(2-fluoro-4-(2,3,5,6-tetrafluorophenoxy)phenyl)-1H-pyrazolo[3,4-d]pyrimidin-1-yl)piperidin-1-yl)prop-2-en-1-one], for which the IC50 (read-out: BTK IC50) stood at 223 nM.

With `CC(C)(C)OC(=O)N1CCCC(n2nc(-c3ccc(Oc4ccccc4[N+](=O)[O-])cc3F)c3c(N)ncnc32)C1` (stereo not shown) [Compound 10, tert-butyl 3-(4-amino-3-(2-fluoro-4-(2-nitrophenoxy)phenyl)-1H-pyrazolo[3,4-d]pyrimidin-1-yl)piperidine-1-carboxylate], where the note is “read-out: BTK IC50”, the IC50 came to 1970 nM.

As for `C/C=C(\C(=O)OC)C(=O)N1CCCC(n2nc(-c3ccc(Oc4c(F)c(F)cc(F)c4F)cc3F)c3c(N)ncnc32)C1` (stereo not shown) [Compound 48, (Z)-methyl 2-(3-(4-amino-3-(2-fluoro-4-(2,3,5,6-tetrafluorophenoxy)phenyl)-1H-pyrazolo[3,4-d]pyrimidin-1-yl)piperidine-1-carbonyl)but-2-enoate], the IC50 (read-out: BTK IC50) worked out at 964 nM.

Turning to `C=CC(=O)N1CC[C@@H](n2nc(-c3ccc(C(=O)c4ccccc4F)cc3F)c3c(N)ncnc32)C1` [Compound 72, 1-((R)-3-(4-amino-3-(2-fluoro-4-(2-fluorobenzoyl)phenyl)-1H-pyrazolo[3,4-d]pyrimidin-1-yl)pyrrolidin-1-yl)prop-2-en-1-one], the IC50 is less than 10 nM under setting [1] and 1 nM (read-out: BTK IC50).

Turning to `N#CC(=O)N1CC[C@@H](n2nc(-c3ccc(Oc4c(F)c(F)cc(F)c4F)cc3F)c3c(N)ncnc32)C1` [Compound 112, 2-((R)-3-(4-amino-3-(2-fluoro-4-(2,3,5,6-tetrafluorophenoxy)phenyl)-1H-pyrazolo[3,4-d]pyrimidin-1-yl)pyrrolidin-1-yl)-2-oxoacetonitrile], the IC50 (read-out: BTK IC50) came out at 107 nM.

Regarding `C=CC(=O)NC(C)C(C)n1nc(-c2ccc(Oc3c(F)c(F)cc(F)c3F)cc2F)c2c(N)ncnc21` (stereo not shown) [Compound 83, N-(3-(4-amino-3-(2-fluoro-4-(2,3,5,6-tetrafluorophenoxy)phenyl)-1H-pyrazolo[3,4-d]pyrimidin-1-yl)butan-2-yl)acrylamide], the IC50 (read-out: BTK IC50) was determined as 75 nM.

In the case of `Nc1ncnc2c1c(-c1ccc(Oc3c(F)c(F)cc(F)c3F)cc1F)nn2[C@@H]1CCCN(C(=O)CCl)C1` [Compound 99, 1-((R)-3-(4-amino-3-(2-fluoro-4-(2,3,5,6-tetrafluorophenoxy)phenyl)-1H-pyrazolo[3,4-d]pyrimidin-1-yl)piperidin-1-yl)-2-chloroethanone], the IC50 by setting is: under setting [1], less than 10 nM; (read-out: BTK IC50) 2 nM.

Turning to `O=C(CC(=O)C(F)(F)F)Nc1ncnc2c1c(-c1ccc(Oc3c(F)c(F)cc(F)c3F)cc1F)nn2C1CCCNC1` (stereo not shown) [Compound 66, 4,4,4-trifluoro-N-(3-(2-fluoro-4-(2,3,5,6-tetrafluorophenoxy)phenyl)-1-(piperidin-3-yl)-1H-pyrazolo[3,4-d]pyrimidin-4-yl)-3-oxobutanamide], under “read-out: BTK IC50”, the IC50 came out at 729 nM.

Consider `C=CS(=O)(=O)N1CC[C@@H](n2nc(-c3ccc(Oc4c(F)c(F)cc(F)c4F)cc3F)c3c(N)ncnc32)C1` [Compound 116, 3-(2-fluoro-4-(2,3,5,6-tetrafluorophenoxy)phenyl)-1-((R)-1-(vinylsulfonyl)pyrrolidin-3-yl)-1H-pyrazolo[3,4-d]pyrimidin-4-amine], for which the IC50 runs as follows: under setting [1], less than 10 nM; (read-out: BTK IC50) 1 nM.

Regarding `C=C(C(=O)N1CCCC(n2nc(-c3ccc(Oc4c(F)c(F)cc(F)c4F)cc3F)c3c(N)ncnc32)C1)C(F)(F)F` (stereo not shown) [Compound 64, 1-(3-(4-amino-3-(2-fluoro-4-(2,3,5,6-tetrafluorophenoxy)phenyl)-1H-pyrazolo[3,4-d]pyrimidin-1-yl)piperidin-1-yl)-2-(trifluoromethyl)prop-2-en-1-one], the IC50 (read-out: BTK IC50) was determined as 6 nM.
